Assay results as given in patent publication US11865103B2, “Methods of treating disorders associated with glycosylation defective proteins” (CASE WESTERN RESERVE UNIVERSITY, priority 2016, dated 2024).

System: hCLRN1^N48K-YFP
Assay: Hair bundle localization of hCLRN1^N48K-YFP (YFP intensity) in neuromast hair cells of live larvae treated with SERCA inhibitors
Assay type: in vivo, zebrafish
Set-up: key to YFP intensity in the bundle compared to untreated control / YFP intensity, post-exposure hair cell body hCLRN1N48K aggregates recovery: “—” = The YFP intensity in the bundle is similar to untreated control.; “+” = The YFP intensity in the bundle is higher compared to untreated control
Conditions: for Hair bundles with strong expression of hCLRN1^N48K-YFP protein / Increase in trafficking of hCLRN1^N48K to the hair bundle: 1 μM TG or 0.4 μM ART; for Hair bundles with strong expression of hCLRN1^N48K-YFP protein: untreated <5%, FIG. 4I; for Cumulative average of YFP intensity in the ROI in hair bundles (Mean±SEM) / Increase in trafficking of hCLRN1^N48K to the hair bundle: hCLRN1^N48K-YFP, clrn1^+/+ larvae; for Cumulative average of YFP intensity in the ROI in hair bundles (Mean±SEM): 1 uM TG or 0.4 uM ART + 0.01% DMSO in E3 medium, untreated 5.927±0.32; for Increase in trafficking of hCLRN1^N48K to the hair bundle: versus untreated
Method: hCLRN1-YFP predominantly localize to the hair bundle and a weak expression in the hair cell membrane in the transgenic hCLRN1-YFP; clrn1^+/+ zebrafish line, and the human pathogenic variant hCLRN1^N48K-YFP mislocalized in the endoplasmic reticulum (ER) with a small amount manages to get trafficked to the hair bundle of the transgenic hCLRN1^N48K-YFP; clrn1^+/+ zebrafish larvae. A relative quantification of YFP fluorescence intensity was carried-out to compare the quantity of hCLRN1^N48K-YFP that manages to localize in the hair bundle to the hCLRN1-YFP in the hair bundle. To quantify the YFP fluorescence intensity, unadjusted 1 micron middle section images of four hair bundles per neuromast were analyzed in Image J. Fluorescence intensity is reported as the background subtracted Integrated Density value. While Confocal microscopy imaging of neuromast hair bundles from the above mentioned groups, YFP fluorescence channel was unadjusted between siblings from the tested groups, and images chosen for figures were near the mean of the group data. Z-stack image of neuromast hair cells were captures using SP2 confocal microscope and the YFP fluorescence measurements in the hair bundles from 1) control uninjected and 2) unconventional secretory pathway cargo injected groups were obtained using ImageJ. A triangle shaped region of interest covering the area of hair bundle in 1 micron thickness middle section of z-stack image of neuromast hair cells was used to obtain YFP fluorescence pixel intensity measurements (Ihair bundle) and an area without hair cells (Ibackground) in the same image. Fluorescence intensity of YFP (Iload) for each hair bundle in a given neuromast was normalized (Iload=Ihair bundle−Ibackground). We analyzed 4 hair bundle per neuromast per larva, and the YFP fluorescence intensity per neuromast was represented as average of 4 hair bundle YFP intensity (IAvg. load=[…] in a neuromast/larva). And the mean of the total IAvg. load per group was considered for statistical comparison between groups. Student's t-test was used to confirm the observed changes in the YFP intensity in the hair bundles of hGRASP55 mRNA injected compared to hSNX27 mRNA injected and uninjected is significant.
Thapsigargin (TG, 1 mg, Sigma-Aldrich, #T9033) stock in 100% DMSO was diluted in E3 medium to make the required final concentration of the drug. Five different concentrations that were earlier reported to induce ER stress and are non-toxic or lower lethal dose (LD50) in the zebrafish (0.1, 0.5, 1.0, 2.5, 5 μM concentrations) were used in this study. A total of 25 larvae per dosage and treatment duration from the genotypes hCLRN1^N48K-YFP; clrn1^+/+ and hCLRN1-YFP; clrn1^+/+, no older than 72 hours post fertilization (hpf) at the start of the experiment, were placed in a well of 12-well uncoated culture plate (BD Falcon, Canaan, CT). For ER stress induction, larvae were incubated in different dosage of TG from 1 hr to overnight at 28.5° C., followed by three times wash with E3 medium at 28.5° C. (Table 2) and hair cells from the hCLRN1^N48K-YFP; clrn1^+/+ and hCLRN1-YFP; clrn1^+/+ lines were examined for the respective protein distribution pattern in the hair cell bundle and the cell body. Live confocal images of ‘O’ and ‘ML1’ neuromasts per larvae were capture using Leica SP2 confocal microscope with 40× oil immersion objective. Unadjusted 1 micron middle section images of four hair bundles per ML1 neuromast of larvae from TG treated and untreated groups were analyzed using Image J software version v. 1.48 (FIG. 4). The hair bundle trafficked amount of hCLRN1^N48K protein corresponds to the change in YFP intensity in the hair bundle in the TG treated larvae. Quantification of YFP fluorescence intensity was carried out as described in the previous experiment for unconventional trafficking of hCLRN1^N48K-YFP by hGRASP55 cargos. […]

## C/C=C(/C)C(=O)O[C@H]1C(C)=C2[C@H]([C@@H]1OC(=O)CCCCCCC)[C@@](C)(OC(C)=O)C[C@H](OC(=O)CCC)[C@@]1(O)[C@H]2OC(=O)[C@@]1(C)O [TG, Thapsigargin]
  Hair bundles with strong expression of hCLRN1^N48K-YFP protein: 38%
  Cumulative average of YFP intensity in the ROI in hair bundles (Mean±SEM): 18.59±0.87
  Increase in trafficking of hCLRN1^N48K to the hair bundle: 3 folds
TG 0.1 μM, exposure 1 h
  YFP intensity in the bundle compared to untreated control: —
TG 0.1 μM, exposure 2 h
  YFP intensity in the bundle compared to untreated control: —
TG 0.1 μM, exposure 3 h
  YFP intensity in the bundle compared to untreated control: —
TG 0.1 μM, exposure 4 h
  YFP intensity in the bundle compared to untreated control: —
TG 0.1 μM, exposure 8 h
  YFP intensity in the bundle compared to untreated control: —
TG 0.1 μM, exposure 16 h
  YFP intensity in the bundle compared to untreated control: —
TG 0.5 μM, exposure 1 h
  YFP intensity in the bundle compared to untreated control: —
TG 0.5 μM, exposure 2 h
  YFP intensity in the bundle compared to untreated control: —
TG 0.5 μM, exposure 3 h
  YFP intensity in the bundle compared to untreated control: —
TG 0.5 μM, exposure 4 h
  YFP intensity in the bundle compared to untreated control: —
TG 0.5 μM, exposure 8 h
  YFP intensity in the bundle compared to untreated control: —
TG 1.0 μM, exposure 1 h
  YFP intensity in the bundle compared to untreated control: —
TG 1.0 μM, exposure 2 h
  YFP intensity in the bundle compared to untreated control: —
TG 1.0 μM, exposure 3 h
  YFP intensity in the bundle compared to untreated control: +
TG dosages lower than 1 μM
  Rescue of mutant protein to the hair bundle: inefficient in rescuing mutant protein

## C[C@@H]1CC[C@H]2[C@@H](C)C(=O)O[C@@H]3O[C@@]4(C)CC[C@@H]1[C@]32OO4 [ART, Artemisinin]
  Hair bundles with strong expression of hCLRN1^N48K-YFP protein: 76%
  Cumulative average of YFP intensity in the ROI in hair bundles (Mean±SEM): 31.04±1.25
  Increase in trafficking of hCLRN1^N48K to the hair bundle: 5 folds
ART 0.1 μM, exposure 1 h
  YFP intensity in the bundle compared to untreated control: —
ART 0.1 μM, exposure 2 h
  YFP intensity in the bundle compared to untreated control: —
ART 0.1 μM, exposure 4 h
  YFP intensity in the bundle compared to untreated control: —
ART 0.1 μM, exposure 6 h
  YFP intensity in the bundle compared to untreated control: —
ART 0.1 μM, exposure 8 h
  YFP intensity in the bundle compared to untreated control: —
ART 0.1 μM, exposure 10 h
  YFP intensity in the bundle compared to untreated control: —
ART 0.1 μM, post-exposure recovery time 10 h
  YFP intensity, post-exposure hair cell body hCLRN1N48K aggregates recovery: —
ART 0.1 μM, post-exposure recovery time 24 h
  YFP intensity, post-exposure hair cell body hCLRN1N48K aggregates recovery: —
ART 0.1 μM, post-exposure recovery time 48 h
  YFP intensity, post-exposure hair cell body hCLRN1N48K aggregates recovery: —
ART 0.25 μM, exposure 1 h
  YFP intensity in the bundle compared to untreated control: —
ART 0.25 μM, exposure 6 h
  YFP intensity in the bundle compared to untreated control: —
ART 0.25 μM, exposure 10 h
  YFP intensity in the bundle compared to untreated control: —
ART 0.25 μM, post-exposure recovery time 10 h
  YFP intensity, post-exposure hair cell body hCLRN1N48K aggregates recovery: —
ART 0.25 μM, post-exposure recovery time 24 h
  YFP intensity, post-exposure hair cell body hCLRN1N48K aggregates recovery: —
ART 0.25 μM, post-exposure recovery time 48 h
  YFP intensity, post-exposure hair cell body hCLRN1N48K aggregates recovery: —
ART 0.4 μM, exposure 1 h
  YFP intensity in the bundle compared to untreated control: —
ART 0.4 μM, exposure 2 h
  YFP intensity in the bundle compared to untreated control: —
ART 0.4 μM, exposure 6 h
  YFP intensity in the bundle compared to untreated control: +
